Test results taken from the supplement of paper PMC10307832.

How the values were obtained:
Experiment in all cases: relative viability (nuclei count vs DMSO), 5 days (fraction); higher = more cells survive
HARA = system: HARA
Method in brief: (§1)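 Cells from lung cancer lines were seeded into 1536-well plates and, one day later, dosed by pin tool. Treatments were either a single drug or a fixed dose of an anchor drug with five library-drug doses (not always all listed) in √10 steps. After 5 days, nuclei were stained in a one-step fixation (final 0.05% Triton X-100, 1% formaldehyde, 1 ug/ml Hoechst) and counted on 4× images, and relative viability is the treated-to-vehicle nuclei ratio, as the median of duplicate plates.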

CAL-12T = system: CAL-12T
Method in brief: as §1

HCC-827 = system: HCC-827
Method in brief: as §1

HOP-62 = system: HOP-62
Method in brief: as §1

EMC-BAC-2 = system: EMC-BAC-2
Method in brief: as §1

NCI-H1437 = system: NCI-H1437
Method in brief: as §1

LCLC-103H = system: LCLC-103H
Method in brief: as §1

NCI-H727 = system: NCI-H727
Method in brief: as §1

A-427 = system: A-427
Method in brief: as §1

NCI-H1792 = system: NCI-H1792
Method in brief: as §1

NCI-H23 = system: NCI-H23
Method in brief: as §1

NCI-H460 = system: NCI-H460
Method in brief: as §1

NCI-H1915 = system: NCI-H1915
Method in brief: as §1

NCI-H1395 = system: NCI-H1395
Method in brief: as §1

NCI-H1755 = system: NCI-H1755
Method in brief: as §1

HCC-366 = system: HCC-366
Method in brief: as §1

NCI-H522 = system: NCI-H522
Method in brief: as §1

## CC(=O)O[C@@]12CO[C@@H]1C[C@H](O)[C@@]1(C)C(=O)[C@H](O)C3=C(C)[C@@H](OC(=O)[C@H](O)[C@@H](NC(=O)OC(C)(C)C)c4ccccc4)C[C@@](O)([C@@H](OC(=O)c4ccccc4)[C@H]21)C3(C)C [Docetaxel] + NC(=O)Nc1cc(-c2cccc(F)c2)sc1C(=O)N[C@H]1CCCNC1 [AZD7762] (partner 0.2 µM)
HARA; first compound 0.0002 µM
  relative viability: 0.273
HARA; first compound 0.000632 µM
  relative viability: 0.201
HARA; first compound 0.002 µM
  relative viability: 0.105
HARA; first compound 0.006325 µM
  relative viability: 0.193
HARA; first compound 0.02 µM
  relative viability: 0.076
CAL-12T; first compound 0.0002 µM
  relative viability: 0.595
CAL-12T; first compound 0.000632 µM
  relative viability: 0.452
CAL-12T; first compound 0.002 µM
  relative viability: 0.491
CAL-12T; first compound 0.02 µM
  relative viability: 0.176
HCC-827; first compound 0.0002 µM
  relative viability: 0.154
HCC-827; first compound 0.000632 µM
  relative viability: 0.239
HCC-827; first compound 0.002 µM
  relative viability: 0.165
HCC-827; first compound 0.006325 µM
  relative viability: 0.165
HCC-827; first compound 0.02 µM
  relative viability: 0.142
HOP-62; first compound 0.0002 µM
  relative viability: 0.6
HOP-62; first compound 0.000632 µM
  relative viability: 0.395
HOP-62; first compound 0.02 µM
  relative viability: 0.0943
EMC-BAC-2; first compound 0.0002 µM
  relative viability: 1.03
EMC-BAC-2; first compound 0.000632 µM
  relative viability: 0.885
EMC-BAC-2; first compound 0.002 µM
  relative viability: 0.467
EMC-BAC-2; first compound 0.006325 µM
  relative viability: 0.334
EMC-BAC-2; first compound 0.02 µM
  relative viability: 0.369
NCI-H1437; first compound 0.0002 µM
  relative viability: 1.08
NCI-H1437; first compound 0.000632 µM
  relative viability: 1.12
NCI-H1437; first compound 0.002 µM
  relative viability: 0.616
NCI-H1437; first compound 0.006325 µM
  relative viability: 0.281
NCI-H1437; first compound 0.02 µM
  relative viability: 0.141
LCLC-103H; first compound 0.0002 µM
  relative viability: 0.771
LCLC-103H; first compound 0.000632 µM
  relative viability: 0.826
LCLC-103H; first compound 0.002 µM
  relative viability: 0.654
LCLC-103H; first compound 0.006325 µM
  relative viability: 0.508
LCLC-103H; first compound 0.02 µM
  relative viability: 0.372
NCI-H727; first compound 0.0002 µM
  relative viability: 0.482
NCI-H727; first compound 0.000632 µM
  relative viability: 0.537
NCI-H727; first compound 0.002 µM
  relative viability: 0.503
NCI-H727; first compound 0.006325 µM
  relative viability: 0.452
NCI-H727; first compound 0.02 µM
  relative viability: 0.381
A-427; first compound 0.0002 µM
  relative viability: 0.729
A-427; first compound 0.000632 µM
  relative viability: 0.768
A-427; first compound 0.002 µM
  relative viability: 0.461
A-427; first compound 0.006325 µM
  relative viability: 0.266
A-427; first compound 0.02 µM
  relative viability: 0.222
NCI-H1792; first compound 0.0002 µM
  relative viability: 0.666
NCI-H1792; first compound 0.000632 µM
  relative viability: 0.465
NCI-H1792; first compound 0.002 µM
  relative viability: 0.24
NCI-H1792; first compound 0.006325 µM
  relative viability: 0.0705
NCI-H1792; first compound 0.02 µM
  relative viability: 0.0512
NCI-H23; first compound 0.0002 µM
  relative viability: 0.241
NCI-H23; first compound 0.000632 µM
  relative viability: 0.246
NCI-H23; first compound 0.002 µM
  relative viability: 0.136
NCI-H23; first compound 0.006325 µM
  relative viability: 0.148
NCI-H23; first compound 0.02 µM
  relative viability: 0.103
NCI-H460; first compound 0.0002 µM
  relative viability: 0.565
NCI-H460; first compound 0.000632 µM
  relative viability: 0.575
NCI-H460; first compound 0.002 µM
  relative viability: 0.167
NCI-H460; first compound 0.006325 µM
  relative viability: 0.0571
NCI-H460; first compound 0.02 µM
  relative viability: 0.0404
NCI-H1915; first compound 0.0002 µM
  relative viability: 0.638
NCI-H1915; first compound 0.000632 µM
  relative viability: 0.703
NCI-H1915; first compound 0.002 µM
  relative viability: 0.527
NCI-H1915; first compound 0.006325 µM
  relative viability: 0.182
NCI-H1915; first compound 0.02 µM
  relative viability: 0.107
NCI-H1395; first compound 0.0002 µM
  relative viability: 0.421
NCI-H1395; first compound 0.000632 µM
  relative viability: 0.38
NCI-H1395; first compound 0.002 µM
  relative viability: 0.379
NCI-H1395; first compound 0.006325 µM
  relative viability: 0.343
NCI-H1395; first compound 0.02 µM
  relative viability: 0.32
NCI-H1755; first compound 0.0002 µM
  relative viability: 0.488
NCI-H1755; first compound 0.000632 µM
  relative viability: 0.396
NCI-H1755; first compound 0.002 µM
  relative viability: 0.324
NCI-H1755; first compound 0.006325 µM
  relative viability: 0.401
NCI-H1755; first compound 0.02 µM
  relative viability: 0.352
HCC-366; first compound 0.0002 µM
  relative viability: 0.206
HCC-366; first compound 0.000632 µM
  relative viability: 0.0949
HCC-366; first compound 0.002 µM
  relative viability: 0.145
HCC-366; first compound 0.006325 µM
  relative viability: 0.0384
HCC-366; first compound 0.02 µM
  relative viability: 0.0132
NCI-H522; first compound 0.0002 µM
  relative viability: 0.927
NCI-H522; first compound 0.000632 µM
  relative viability: 1.08
NCI-H522; first compound 0.002 µM
  relative viability: 0.622
NCI-H522; first compound 0.006325 µM
  relative viability: 0.484
NCI-H522; first compound 0.02 µM
  relative viability: 0.373

## Cc1sc2c(c1C)C(c1ccc(Cl)cc1)=N[C@@H](CC(=O)OC(C)(C)C)c1nnc(C)n1-2 [JQ1] + NC(=O)Nc1cc(-c2cccc(F)c2)sc1C(=O)N[C@H]1CCCNC1 [AZD7762] (partner 0.2 µM)
HARA; first compound 0.04 µM
  relative viability: 0.303
HARA; first compound 0.1265 µM
  relative viability: 0.431
HARA; first compound 0.4 µM
  relative viability: 0.236
HARA; first compound 1.265 µM
  relative viability: 0.155
HARA; first compound 4 µM
  relative viability: 0.242
CAL-12T; first compound 0.04 µM
  relative viability: 0.588
CAL-12T; first compound 0.1265 µM
  relative viability: 0.52
CAL-12T; first compound 0.4 µM
  relative viability: 0.466
CAL-12T; first compound 1.265 µM
  relative viability: 0.365
CAL-12T; first compound 4 µM
  relative viability: 0.317
HCC-827; first compound 0.04 µM
  relative viability: 0.292
HCC-827; first compound 0.1265 µM
  relative viability: 0.266
HCC-827; first compound 1.265 µM
  relative viability: 0.233
HCC-827; first compound 4 µM
  relative viability: 0.277
HOP-62; first compound 0.04 µM
  relative viability: 0.535
HOP-62; first compound 0.1265 µM
  relative viability: 0.608
HOP-62; first compound 0.4 µM
  relative viability: 0.37
HOP-62; first compound 1.265 µM
  relative viability: 0.103
HOP-62; first compound 4 µM
  relative viability: 0.107
EMC-BAC-2; first compound 0.04 µM
  relative viability: 1.08
EMC-BAC-2; first compound 0.1265 µM
  relative viability: 0.869
EMC-BAC-2; first compound 0.4 µM
  relative viability: 0.975
EMC-BAC-2; first compound 1.265 µM
  relative viability: 0.725
EMC-BAC-2; first compound 4 µM
  relative viability: 0.627
NCI-H1437; first compound 0.04 µM
  relative viability: 1.11
NCI-H1437; first compound 0.1265 µM
  relative viability: 0.979
NCI-H1437; first compound 0.4 µM
  relative viability: 0.847
NCI-H1437; first compound 1.265 µM
  relative viability: 0.657
NCI-H1437; first compound 4 µM
  relative viability: 0.445
LCLC-103H; first compound 0.04 µM
  relative viability: 0.778
LCLC-103H; first compound 0.1265 µM
  relative viability: 0.713
LCLC-103H; first compound 0.4 µM
  relative viability: 0.701
LCLC-103H; first compound 1.265 µM
  relative viability: 0.492
LCLC-103H; first compound 4 µM
  relative viability: 0.438
NCI-H727; first compound 0.04 µM
  relative viability: 0.735
NCI-H727; first compound 0.1265 µM
  relative viability: 0.61
NCI-H727; first compound 0.4 µM
  relative viability: 0.539
NCI-H727; first compound 1.265 µM
  relative viability: 0.436
NCI-H727; first compound 4 µM
  relative viability: 0.405
A-427; first compound 0.04 µM
  relative viability: 0.749
A-427; first compound 0.1265 µM
  relative viability: 0.611
A-427; first compound 0.4 µM
  relative viability: 0.594
A-427; first compound 1.265 µM
  relative viability: 0.516
A-427; first compound 4 µM
  relative viability: 0.416
NCI-H1792; first compound 0.04 µM
  relative viability: 0.62
NCI-H1792; first compound 0.1265 µM
  relative viability: 0.46
NCI-H1792; first compound 0.4 µM
  relative viability: 0.38
NCI-H1792; first compound 1.265 µM
  relative viability: 0.14
NCI-H1792; first compound 4 µM
  relative viability: 0.0872
NCI-H23; first compound 0.04 µM
  relative viability: 0.208
NCI-H23; first compound 0.1265 µM
  relative viability: 0.21
NCI-H23; first compound 0.4 µM
  relative viability: 0.215
NCI-H23; first compound 1.265 µM
  relative viability: 0.127
NCI-H23; first compound 4 µM
  relative viability: 0.105
NCI-H460; first compound 0.04 µM
  relative viability: 0.594
NCI-H460; first compound 0.1265 µM
  relative viability: 0.327
NCI-H460; first compound 0.4 µM
  relative viability: 0.644
NCI-H460; first compound 1.265 µM
  relative viability: 0.443
NCI-H460; first compound 4 µM
  relative viability: 0.106
NCI-H1915; first compound 0.04 µM
  relative viability: 0.729
NCI-H1915; first compound 0.4 µM
  relative viability: 0.653
NCI-H1915; first compound 1.265 µM
  relative viability: 0.437
NCI-H1915; first compound 4 µM
  relative viability: 0.241
NCI-H1395; first compound 0.04 µM
  relative viability: 0.384
NCI-H1395; first compound 0.1265 µM
  relative viability: 0.379
NCI-H1395; first compound 0.4 µM
  relative viability: 0.372
NCI-H1395; first compound 1.265 µM
  relative viability: 0.348
NCI-H1395; first compound 4 µM
  relative viability: 0.361
NCI-H1755; first compound 0.04 µM
  relative viability: 0.533
NCI-H1755; first compound 0.1265 µM
  relative viability: 0.387
NCI-H1755; first compound 0.4 µM
  relative viability: 0.565
NCI-H1755; first compound 1.265 µM
  relative viability: 0.507
NCI-H1755; first compound 4 µM
  relative viability: 0.433
HCC-366; first compound 0.04 µM
  relative viability: 0.305
HCC-366; first compound 0.4 µM
  relative viability: 0.23
HCC-366; first compound 1.265 µM
  relative viability: 0.146
HCC-366; first compound 4 µM
  relative viability: 0.0976
NCI-H522; first compound 0.04 µM
  relative viability: 0.974
NCI-H522; first compound 0.1265 µM
  relative viability: 0.685
NCI-H522; first compound 0.4 µM
  relative viability: 0.774
NCI-H522; first compound 1.265 µM
  relative viability: 0.52
NCI-H522; first compound 4 µM
  relative viability: 0.397
